The results in this text go back to ChEMBL document CHEMBL5725462, “Substituted triazolopyridines” (2017).

In the assay the target is T1, Dual specificity protein kinase TTK (Homo sapiens, UniProt P33981).
T1 sequence (P33981 whole entry): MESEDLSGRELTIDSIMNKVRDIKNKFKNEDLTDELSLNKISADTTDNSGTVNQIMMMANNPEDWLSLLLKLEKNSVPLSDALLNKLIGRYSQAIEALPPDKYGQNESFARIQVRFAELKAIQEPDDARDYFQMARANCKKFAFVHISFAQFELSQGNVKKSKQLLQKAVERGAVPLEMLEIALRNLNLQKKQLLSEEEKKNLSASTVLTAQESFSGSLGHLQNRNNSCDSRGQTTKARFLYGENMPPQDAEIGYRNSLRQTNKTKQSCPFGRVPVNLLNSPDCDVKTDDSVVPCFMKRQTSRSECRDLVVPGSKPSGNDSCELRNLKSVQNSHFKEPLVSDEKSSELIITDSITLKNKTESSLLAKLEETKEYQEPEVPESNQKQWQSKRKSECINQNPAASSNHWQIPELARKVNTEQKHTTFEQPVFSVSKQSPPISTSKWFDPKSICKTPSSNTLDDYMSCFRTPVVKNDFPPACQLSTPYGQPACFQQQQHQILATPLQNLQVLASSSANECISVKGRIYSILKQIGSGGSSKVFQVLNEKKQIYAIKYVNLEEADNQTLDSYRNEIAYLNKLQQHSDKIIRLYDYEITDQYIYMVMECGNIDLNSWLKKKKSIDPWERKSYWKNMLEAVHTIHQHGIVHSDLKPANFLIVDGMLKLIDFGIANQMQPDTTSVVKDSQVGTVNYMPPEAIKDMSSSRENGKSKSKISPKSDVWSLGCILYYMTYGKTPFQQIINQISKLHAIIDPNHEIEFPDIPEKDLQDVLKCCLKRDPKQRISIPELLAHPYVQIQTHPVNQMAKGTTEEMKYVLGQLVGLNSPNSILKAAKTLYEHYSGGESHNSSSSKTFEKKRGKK
In words: The concentration of Mps-1 in the assay was adjusted to the activity of the enzyme lot and was chosen appropriate to have the assay in the linear range, typical enzyme concentrations were in the range of about 1 nM (final conc. in the 5 μl assay volume).

A value given as a limit tells only on which side of the number the result lay.

For orientation: IC50 means the midpoint of a concentration-inhibition curve. Low readings indicate inhibition by little substance, high ones a need for much substance. Take `COc1cc(C(=O)N2CC3(COC3)C2)ccc1Nc1nc2ccc(-c3ccc(C(=O)NCc4ccc(F)cc4)nc3)cn2n1`: the IC50 is less than 1 nM.
